Like-named read-outs stand apart in the source and are kept apart here.
How the values were obtained:
[1] = target: T1, PPARγ (Homo sapiens, UniProt P37231); settings: TR-FRET-based assay
T1 sequence (P37231 235-505 limits assumed): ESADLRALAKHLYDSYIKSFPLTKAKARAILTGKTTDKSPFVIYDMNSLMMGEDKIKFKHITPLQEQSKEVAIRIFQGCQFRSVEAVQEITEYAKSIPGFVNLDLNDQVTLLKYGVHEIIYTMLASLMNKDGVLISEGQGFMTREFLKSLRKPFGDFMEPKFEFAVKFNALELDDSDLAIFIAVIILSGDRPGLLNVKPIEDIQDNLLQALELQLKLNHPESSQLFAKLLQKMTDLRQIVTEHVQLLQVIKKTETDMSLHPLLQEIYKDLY

[2] = target: T2, PPARδ (Homo sapiens, UniProt Q03181); settings: TR-FRET-based assay
T2 sequence (Q03181 171-441 limits assumed): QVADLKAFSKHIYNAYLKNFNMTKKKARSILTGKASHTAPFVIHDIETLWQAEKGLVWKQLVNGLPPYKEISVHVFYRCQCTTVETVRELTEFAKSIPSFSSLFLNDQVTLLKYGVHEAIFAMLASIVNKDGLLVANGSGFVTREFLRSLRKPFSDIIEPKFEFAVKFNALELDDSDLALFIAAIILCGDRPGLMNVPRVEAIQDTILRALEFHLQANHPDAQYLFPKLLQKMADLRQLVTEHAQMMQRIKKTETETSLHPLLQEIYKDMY

[3] = system: hBM-MSCs; settings: 10 μM cotreated with IDX medium for 5 d
[4] = target: T3, PPARδ-LBD (Homo sapiens, UniProt Q03181)
T3 sequence (Q03181 211-439 limits assumed): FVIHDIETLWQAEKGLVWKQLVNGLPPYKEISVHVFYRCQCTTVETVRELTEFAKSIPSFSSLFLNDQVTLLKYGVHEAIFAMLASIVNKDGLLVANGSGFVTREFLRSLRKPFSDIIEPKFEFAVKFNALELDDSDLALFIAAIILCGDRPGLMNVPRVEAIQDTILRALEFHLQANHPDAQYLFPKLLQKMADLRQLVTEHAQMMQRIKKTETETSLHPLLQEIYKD

[5] = target: T3, PPARδ-LBD; remark: listed apart in the source
[6] = target: T4, human A3AR (Homo sapiens, UniProt P0DMS8); settings: at 10 μM; previously reported; cited from earlier work
T4 sequence (P0DMS8 1-318): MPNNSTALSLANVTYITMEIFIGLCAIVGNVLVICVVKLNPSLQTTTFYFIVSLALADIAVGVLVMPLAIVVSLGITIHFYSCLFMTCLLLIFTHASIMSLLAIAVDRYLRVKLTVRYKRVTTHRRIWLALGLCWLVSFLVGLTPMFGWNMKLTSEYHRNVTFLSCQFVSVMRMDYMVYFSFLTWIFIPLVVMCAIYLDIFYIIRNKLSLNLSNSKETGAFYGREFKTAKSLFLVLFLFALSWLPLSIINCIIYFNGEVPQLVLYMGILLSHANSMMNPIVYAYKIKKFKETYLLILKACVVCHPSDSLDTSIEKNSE

[7] = target: T5, PPARγ-LBD (Homo sapiens, UniProt P37231); settings: fluorescein-TRAP220/DRIP peptide
T5 sequence (P37231 238-503 limits assumed): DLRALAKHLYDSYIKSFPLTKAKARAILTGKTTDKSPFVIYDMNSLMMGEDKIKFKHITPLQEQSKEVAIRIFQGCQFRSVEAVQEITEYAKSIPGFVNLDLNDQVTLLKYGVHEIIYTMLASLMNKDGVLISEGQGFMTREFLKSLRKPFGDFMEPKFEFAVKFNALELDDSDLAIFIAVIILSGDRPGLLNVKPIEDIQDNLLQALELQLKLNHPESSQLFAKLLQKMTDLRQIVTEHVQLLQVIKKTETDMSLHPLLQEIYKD

[8] = target: T4, human A3AR; settings: at 10 μM

Structure (SMILES)	adiponectin production compared to the IDX vehicle control [3]	interaction between PPARδ-LBD and corepressor peptide SMRT-ID2 [4]	recruitment of coactivator peptide C33 to PPARδ-LBD [5]	hA3AR % replacement [6] [% at 10 μM]	other results
O[C@@H]1[C@H](O)CS[C@H]1Cn1cnc2c(NCc3cccc(F)c3)nc(Cl)nc21 [4a, (2S,3R,4S)-2-((2-Chloro-6-((3-fluorobenzyl)amino)-9H-purin-9-yl)methyl)tetrahydrothiophene-3,4-diol]	significantly promoted adiponectin production	significantly increased the interaction between PPARδ-LBD and the corepressor peptide	no effect on the recruitment of coactivator peptide	17	PPARγ-binding activity (in words) [1]: significant dual receptor-binding activity; PPARδ-binding activity (in words) [2]: significant dual receptor-binding activity
O[C@@H]1[C@H](O)CS[C@H]1Cn1cnc2c(NCc3cccc(Cl)c3)nc(Cl)nc21 [4b, (2S,3R,4S)-2-((2-Chloro-6-((3-chlorobenzyl)amino)-9H-purin-9-yl)methyl)tetrahydrothiophene-3,4-diol]				13	
O[C@@H]1[C@H](O)CS[C@H]1Cn1cnc2c(NCc3cccc(Br)c3)nc(Cl)nc21 [4c, (2S,3R,4S)-2-((6-((3-Bromobenzyl)amino)-2-chloro-9H-purin-9-yl)methyl)tetrahydrothiophene-3,4-diol]	significantly promoted adiponectin production	significantly increased the interaction between PPARδ-LBD and the corepressor peptide	no effect on the recruitment of coactivator peptide	21	PPARγ-binding activity (in words) [1]: significant dual receptor-binding activity; PPARδ-binding activity (in words) [2]: significant dual receptor-binding activity
O[C@@H]1[C@H](O)CS[C@H]1Cn1cnc2c(NCc3cccc(I)c3)nc(Cl)nc21 [4d, (2S,3R,4S)-2-((2-Chloro-6-((3-iodobenzyl)amino)-9H-purin-9-yl)-methyl)tetrahydrothiophene-3,4-diol]		significantly increased the interaction between PPARδ-LBD and the corepressor peptide	no effect on the recruitment of coactivator peptide	10	PPARδ-binding activity (in words) [2]: significant dual receptor-binding activity; PPARδ corepressor recruitment in presence of PPARδ agonist 27 ([4]; 27 (1 μM), 4d (10 μM), 28 (1 μM)): significantly inhibited by 27
O[C@@H]1[C@H](O)CS[C@H]1Cn1cnc2c(NCc3cccc(F)c3)ncnc21 [4e, (2S,3R,4S)-2-((6-((3-Fluorobenzyl)amino)-9H-purin-9-yl)methyl)-tetrahydrothiophene-3,4-diol]				9	
O[C@@H]1[C@H](O)CS[C@H]1Cn1cnc2c(NCc3cccc(Cl)c3)ncnc21 [4f, (2S,3R,4S)-2-((6-((3-Chlorobenzyl)amino)-9H-purin-9-yl)methyl)-tetrahydrothiophene-3,4-diol]				9	
O[C@@H]1[C@H](O)CS[C@H]1Cn1cnc2c(NCc3cccc(Br)c3)ncnc21 [4g, (2S,3R,4S)-2-((6-((3-Bromobenzyl)amino)-9H-purin-9-yl)methyl)-tetrahydrothiophene-3,4-diol]				6	
O[C@@H]1[C@H](O)CS[C@H]1Cn1cnc2c(NCc3cccc(I)c3)ncnc21 [4h, (2S,3R,4S)-2-((6-((3-Iodobenzyl)amino)-9H-purin-9-yl)methyl)-tetrahydrothiophene-3,4-diol]				14	
CC#Cc1nc(NCc2cccc(F)c2)c2ncn(C[C@@H]3SC[C@@H](O)[C@H]3O)c2n1 [4i, (2S,3R,4S)-2-((6-((3-Fluorobenzyl)amino)-2-(prop-1-yn-1-yl)-9H-purin-9-yl)methyl)tetrahydrothiophene-3,4-diol]	significantly promoted adiponectin production				
CC#Cc1nc(NCc2cccc(Cl)c2)c2ncn(C[C@@H]3SC[C@@H](O)[C@H]3O)c2n1 [4j, (2S,3R,4S)-2-((6-((3-Chlorobenzyl)amino)-2-(prop-1-yn-1-yl)-9H-purin-9-yl)methyl)tetrahydrothiophene-3,4-diol]					coactivator peptide recruitment to PPARγ-LBD [7]: no statistical significance
CC#Cc1nc(NCc2cccc(Br)c2)c2ncn(C[C@@H]3SC[C@@H](O)[C@H]3O)c2n1 [4k, (2S,3R,4S)-2-((6-((3-Bromobenzyl)amino)-2-(prop-1-yn-1-yl)-9H-purin-9-yl)methyl)tetrahydrothiophene-3,4-diol]	significantly promoted adiponectin production				
CC#Cc1nc(NCc2cccc(I)c2)c2ncn(C[C@@H]3SC[C@@H](O)[C@H]3O)c2n1 [4l, (2S,3R,4S)-2-((6-((3-Iodobenzyl)amino)-2-(prop-1-yn-1-yl)-9H-purin-9-yl)methyl)tetrahydrothiophene-3,4-diol]	significantly promoted adiponectin production				
O[C@@H]1[C@H](O)CO[C@H]1Cn1cnc2c(NCc3cccc(Cl)c3)nc(Cl)nc21 [4n, (2S,3R,4R)-2-((2-Chloro-6-((3-chlorobenzyl)amino)-9H-purin-9-yl)methyl)tetrahydrofuran-3,4-diol]	significantly promoted adiponectin production	significantly increased the interaction between PPARδ-LBD and the corepressor peptide	no effect on the recruitment of coactivator peptide		
O[C@@H]1[C@H](O)CO[C@H]1Cn1cnc2c(NCc3cccc(Br)c3)nc(Cl)nc21 [4o, (2S,3R,4R)-2-((6-((3-Bromobenzyl)amino)-2-chloro-9H-purin-9-yl)methyl)tetrahydrofuran-3,4-diol]	significantly promoted adiponectin production	significantly increased the interaction between PPARδ-LBD and the corepressor peptide	no effect on the recruitment of coactivator peptide		
O[C@@H]1[C@H](O)CO[C@H]1Cn1cnc2c(NCc3cccc(I)c3)nc(Cl)nc21 [4p, (2S,3R,4R)-2-((2-Chloro-6-((3-iodobenzyl)amino)-9H-purin-9-yl)-methyl)tetrahydrofuran-3,4-diol]					hA3AR % replacement [8]: 3% at 10 μM
